According to US5698529A, “Chemotherapeutic compositions” (Supratek Pharma, Inc., priority 1996, dated 1997):
≈ marks a conversion by molar mass, not a printed value. Read-outs that look alike come from different tables or passages of the source.

Key:
H-69 cells = test: Cytotoxic activity of plasma of inoculated mice on H-69 cells; type: cell-based, human; settings: MTD i.v., plasma one hour after administration
Method: (§1) Anti-neoplastic activity is determined by evaluation of the cytotoxic activity of plasma of mammals inoculated with the test composition (see de Valeriola et el., Cancer Chemother. Pharmacol. 29, 133-140, 1991).
(§2) Groups (6 animals/group) of C57B1/6 7-week-old female mice are inoculated i.v. (via the tail vein) with free or micellar (N=1.3) daunorubicin obtained as described in Example 3 {Prep. B and Prep. A, respectively}. Drug concentrations (MTD) are adjusted so that a maximum volume of 0.1 mL is injected in each mouse. The experiment is repeated twice.
(§3) To obtain plasma samples, blood (10 μl) is collected from the tail artery one hour after drug administration, diluted 1:10 with sterile RPMI 1640 medium, and centrifuged at 400 g for 15 minutes. […] The cells are incubated for two hours at 37° C. and 5% CO2, and then washed three times with RPMI 1640. The pretreated cells are incubated in RPMI 1640 supplemented with 10% fetal calf serum at 37° C. and 5% CO2 for three days, after which cytotoxicity is determined as described in Example 1.

[1] = test system: human breast cancer (MCF-7); test: Cytotoxicity against daunorubicin-sensitive human breast cancer (MCF-7); type: cell-based; settings: MCF7
Description: The daunorubicin composition of Example 3 {Prep. […] B}.

leukocytes = test: Leukocyte count (WBS) in mice
Method: Therefore, the leukocyte count during in vivo administration of MTD daunorubicin allows the assessment of the ratio between specific (DNA-intercollation) activity of the drug and non-specific toxicity.
Groups (6 animals/group) of C57B1/6 7-week-old female mice are inoculated i.p. with free of micellar (N=1.3) daunorubicin obtained as described in Example 3 {Prep. B and Prep. A, respectively}. Drug concentrations (MTD) are adjusted so that a maximum volume of 0.5 mL is injected in each mouse. Blood samples are collected and viable leukocytes are counted as described in Michisch et al., Proc. Natl. Acad. Sci. USA 88, 547-551 (1991). The number of WBC after administration of 0.1 mL PBS, 15-16 mln cells/mL, is used as the control. The experiment is repeated twice.
The effects of free and micellar daunorubicin obtained as described in Example 3 {Prep. B and Prep. A, respectively} on leukocyte count are determined three days after administration as described in Example 15.

[2] = test system: normal human mononuclear cells; test: IC50 at intervals of drug contact, normal mononuclear cells, Example 5; type: cell-based
Method: (§4) Measurements are made at the indicated intervals of the drug contact with the cells from 15 minutes to 12 hours.

SKVLB cells [3] = test: Cytotoxic activity of plasma of inoculated mice on SKVLB cells; type: cell-based, human
Method: as §1, §2, §3
The procedure of Example 16 is repeated utilizing SKVLB and SRVO3 cells.

CRL157 cells = test: Cytotoxicity to CRL157 cells after incubation of preparations in the dark at 37° C.; type: cell-based; settings: Homo sapiens
Method: (§5) B. Human ovarian carcinoma cells (CRL157) are precultured in 1% solution of the same block copolymer but without daunorubicin in RPMI 1640 medium supplemented with 10% calf fetal serum. The preparation of part A is added and the mixture is incubated for 60 minutes at 37° C. and the cells then washed three times with RPMI 1640 and cultured in RPMI 1640 supplemented with 10% calf fetal serum for 3 days {Prep. A}. Cytotoxicity is measured, both for this preparation and a parallel preparation of free daunorubicin {Prep. B}, using the method of Alley et al., Cancer Res., 48, 589-601 (1988). The results are as follows:
Micellar daunorubicin obtained as described in Example 3 {Prep. A} and free daunorubicin {Prep. B} are incubated in the dark at 37° C. and cytotoxicity to CRL157 cells in then determined in the manner discussed in Part B of Example 1.

[4] = test system: human T-lymphoma (Jurkat) cells; test: IC50 at intervals of drug contact, Jurkat cells, Example 5; type: cell-based
Method: as §4

[5] = test system: human small cell carcinoma of lung (H-69); test: Cytotoxicity to human small cell carcinoma of lung (H-69), Example 1; type: cell-based
Method: A. A block copolymer of poly(oxyethylene)-poly(oxypropylene) in which N=0.25 (Pluronic F-68) is diluted with RPMI 1640 medium to a final concentration of 2.0% at 4° C. The mixture is incubated for 30 minutes at 37° C. and then sterilely filtered through a 0.22 μm filter. An equal volume of a solution of 200 μg daunorubicin in RPMI 1640 medium is added and this mixture is incubated for 30 minutes at 37° C.
as §5
Following the same procedure, cytotoxicity is determined against human small cell carcinoma of lung (H-69): […]

SKVLB cells [6] = test: cells; type: cell-based; settings: Homo sapiens
Description: (§6) The antineoplastic agent vinblastine is incorporated into the block copolymer mixture described in Example 3.
(§7) The antineoplastic agent mitomycin C is incorporated into the block copolymer mixture described in Example 3.
(§8) The antineoplastic agent methotrexate is incorporated into the block copolymer mixture described in Example 3.
(§9) The antineoplastic agent daunorubicin is incorporated into the block copolymer mixture described in Example 3.

SKVO3 cells = test: cells; type: cell-based; settings: Homo sapiens; SKVO3, drug-sensitive; read-out: IC50
Description: as §6, §7, §8, §9

COc1cccc2c1C(=O)c1c(O)c3c(c(O)c1C2=O)C[C@@](O)(C(C)=O)C[C@@H]3O[C@H]1C[C@H](N)[C@H](O)[C@H](C)O1 [Prep. B, daunorubicin]
Inhibition, % (H-69 cells; plasma dilution 1:20): 42%
Inhibition, % (H-69 cells; plasma dilution 1:200): 5%
Inhibition, % (H-69 cells; plasma dilution 1:2000): 0%
Inhibition, % (H-69 cells; plasma dilution 1:20000): 0%
inhibition at 0.016 µg/mL [1]: 15%
inhibition at 0.08 µg/mL [1]: 43%
inhibition at 0.4 µg/mL [1]: 69%
inhibition at 2 µg/mL [1]: 91%
inhibition at 10 µg/mL [1]: 100%
inhibition at 50 µg/mL [1]: 100%
WBS, % of control (leukocytes; day 0, MTD i.p.): 100 % of control
WBS, % of control (leukocytes; day 3, MTD i.p.): 40 % of control
WBS, % of control (leukocytes; day 7, MTD i.p.): 60 % of control
WBS, % of control (leukocytes; day 10, MTD i.p.): 93.8 % of control
WBS, % of control (leukocytes; day 14, MTD i.p.): 100 % of control
WBS, % of control (leukocytes; dose 25% of MTD, three days after administration): 78 % of control
WBS, % of control (leukocytes; dose 50% of MTD, three days after administration): 61 % of control
WBS, % of control (leukocytes; dose 75% of MTD, three days after administration): 36 % of control
WBS, % of control (leukocytes; dose 100% of MTD, three days after administration): 39 % of control
IC50 ([2]; 0.25 h): 4.9 µg/mL (≈ 9.29 µM)
IC50 ([2]; 0.5 h): 0.98 µg/mL (≈ 1.86 µM)
IC50 ([2]; 0.75 h): 0.405 µg/mL (≈ 0.768 µM)
IC50 ([2]; 1 h): 0.31 µg/mL (≈ 0.588 µM)
IC50 ([2]; 2 h): 0.29 µg/mL (≈ 0.55 µM)
IC50 ([2]; 4 h): 0.275 µg/mL (≈ 0.521 µM)
IC50 ([2]; 8 h): 0.28 µg/mL (≈ 0.531 µM)
IC50 ([2]; 12 h): 0.24 µg/mL (≈ 0.455 µM)
Inhibition, % (SKVLB cells [3]; plasma dilution 1:20, 10 mg/kg daunorubicin): 8%
Inhibition, % (SKVLB cells [3]; plasma dilution 1:20, MTD of daunorubicin): 0%
Inhibition, % (SKVLB cells [3]; plasma dilution 1:200, 10 mg/kg daunorubicin): 0%
Inhibition, % (SKVLB cells [3]; plasma dilution 1:200, MTD of daunorubicin): 0%
Inhibition, % (SKVLB cells [3]; plasma dilution 1:2000, 10 mg/kg daunorubicin): 0%
Inhibition, % (SKVLB cells [3]; plasma dilution 1:2000, MTD of daunorubicin): 0%
IC50 (CRL157 cells; 2 h): 0.4 µg/mL (≈ 0.758 µM)
IC50 (CRL157 cells; 4 h): 0.475 µg/mL (≈ 0.9 µM)
IC50 (CRL157 cells; 12 h): 1.12 µg/mL (≈ 2.12 µM)
IC50 (CRL157 cells; 24 h): 6.3 µg/mL (≈ 11.9 µM)
IC50 (CRL157 cells; 48 h): 10.2 µg/mL (≈ 19.3 µM)
IC50 (CRL157 cells; 96 h): 48.9 µg/mL (≈ 92.7 µM)
IC50 ([4]; 0.25 h): 0.12 µg/mL (≈ 0.227 µM)
IC50 ([4]; 0.5 h, drug contact 0.50 hours, read-out: IC50): 0.068 µg/mL (≈ 0.129 µM)
IC50 ([4]; 0.75 h): 0.035 µg/mL (≈ 0.0663 µM)
IC50 ([4]; 1 h): 0.025 µg/mL (≈ 0.0474 µM)
IC50 ([4]; 2 h): 0.019 µg/mL (≈ 0.036 µM)
IC50 ([4]; 4 h): 0.016 µg/mL (≈ 0.0303 µM)
IC50 ([4]; 8 h): 0.003 µg/mL (≈ 0.00569 µM)
IC50 ([4]; 12 h): 0.0052 µg/mL (≈ 0.00986 µM)
inhibition at 0.0032 µg/mL [5]: 20%
inhibition at 0.016 µg/mL [5]: 42%
inhibition at 0.08 µg/mL [5]: 69%
inhibition at 0.4 µg/mL [5]: 91%
inhibition at 2 µg/mL [5]: 100%
inhibition at 10 µg/mL [5]: 100%
inhibition at 50 µg/mL [5]: 100%
IC50 (SKVLB cells [6]): 5.85 µg/mL (≈ 11.1 µM)
IC50 (SKVO3 cells): 0.62 µg/mL (≈ 1.18 µM)
